In US8436043B2 (Takeda Pharmaceutical Company Limited, priority 2008, dated 2013) one finds inhibition data, which are given here for 29 compounds.

Structures are written as SMILES.

The assay deals with T1, human glucagon receptor (Homo sapiens, UniProt P47871).
T1 construct: made in house; host or cells: FreeStyle CHO cells, transient transfection with pMSRαneo/hGCGR; membrane fraction (35,000 rpm pellet)
T1 sequence (P47871 26-477): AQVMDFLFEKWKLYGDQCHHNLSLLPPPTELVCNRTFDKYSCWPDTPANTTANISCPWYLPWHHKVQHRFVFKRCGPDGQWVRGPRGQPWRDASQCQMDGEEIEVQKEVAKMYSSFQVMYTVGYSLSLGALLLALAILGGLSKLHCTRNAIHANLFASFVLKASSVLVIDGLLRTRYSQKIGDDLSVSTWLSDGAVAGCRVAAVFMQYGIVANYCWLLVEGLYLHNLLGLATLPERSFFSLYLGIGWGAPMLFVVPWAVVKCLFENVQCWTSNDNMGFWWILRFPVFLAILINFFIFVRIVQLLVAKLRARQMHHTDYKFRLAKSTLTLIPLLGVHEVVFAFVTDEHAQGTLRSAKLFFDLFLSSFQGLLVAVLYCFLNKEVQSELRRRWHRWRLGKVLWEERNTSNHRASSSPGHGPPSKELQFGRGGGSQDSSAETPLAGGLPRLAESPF
The assay is described as follows: Glucagon binding inhibitory activity ([125I]-glucagon binding to glucagon receptor membrane protein). The following applies: test compound 10 μM; 0.4% DMSO = 0%, non-labeled glucagon 1 μM = 100%; read-out: inhibitory rate (%) at 10 μM. An outline of the steps:
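Receptor source was a membrane fraction of transiently transfected CHO cells bearing human receptor; 90 min room-temperature binding, filtration harvest, scintillation counting.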
Consider `Cc1c(C(C)Nc2ccc(C(=O)N(C)CCC(=O)O)cc2)oc2ccc(OCc3ccccc3)cc12` (centres unmarked) [Example A166, 3-[{[4-({1-[5-(benzyloxy)-3-methyl-1-benzofuran-2-yl]ethyl}amino)phenyl]carbonyl}(methyl)amino]propanoic acid], for which the inhibition at 10 µM was 75%.

`Cc1c(C(Nc2ccc(C(=O)NCCC(=O)O)cc2)C2CCCCC2)oc2ccc(OCc3ccnc(F)c3)cc12` (centres unmarked) [Example A167, 3-[({4-[(cyclohexyl{5-[(2-fluoropyridin-4-yl)methoxy]-3-methyl-1-benzofuran-2-yl}methyl)amino]phenyl}carbonyl)amino]propanoic acid]: the inhibition at 10 µM came out at 86%.

Regarding `Cc1c(C(Nc2ccc(C(=O)N(C)CCC(=O)O)cc2)C2CCCCC2)oc2ccc(OCc3ccnc(F)c3)cc12` (centres unmarked) [Example A168, 3-[({4-[(cyclohexyl{5-[(2-fluoropyridin-4-yl)methoxy]-3-methyl-1-benzofuran-2-yl}methyl)amino]phenyl}carbonyl)(methyl)amino]propanoic acid], the inhibition at 10 µM came to 90%.

As to `Cc1c(C(Nc2ccc(C(=O)NCCC(=O)O)cc2)C2CCCCC2)oc2ccc(OCc3ccc(Cl)nc3)cc12` (centres unmarked) [Example A169, 3-{[(4-{[{5-[(6-chloropyridin-3-yl)methoxy]-3-methyl-1-benzofuran-2-yl}(cyclohexyl)methyl]amino}phenyl)carbonyl]amino}propanoic acid], the inhibition at 10 µM turned out to be 86%.

As to `Cc1c(C(Nc2ccc(C(=O)N(C)CCC(=O)O)cc2)C2CCCCC2)oc2ccc(OCc3ccc(Cl)nc3)cc12` (centres unmarked) [Example A170, 3-{[(4-{[{5-[(6-chloropyridin-3-yl)methoxy]-3-methyl-1-benzofuran-2-yl}(cyclohexyl)methyl]amino}phenyl)carbonyl](methyl)amino}-propanoic acid], the inhibition at 10 µM was 89%.

On to `Cc1c(C(Nc2ccc(C(=O)NCCC(=O)O)cc2)C(C)C)oc2ccc(OCc3ccccc3)cc12` (centres unmarked) [Example A171, 3-({[4-({1-[5-(benzyloxy)-3-methyl-1-benzofuran-2-yl]-2-methylpropyl}amino)phenyl]carbonyl}amino)propanoic acid], for which the inhibition at 10 µM amounted to 86%.

Take `Cc1c(C(Nc2ccc(C(=O)N(C)CCC(=O)O)nc2)C(C)C)oc2ccc(OCc3ccccc3)cc12` (centres unmarked) [Example A172, 3-[{[5-({1-[5-(benzyloxy)-3-methyl-1-benzofuran-2-yl]-2-methylpropyl}amino)pyridin-2-yl]carbonyl}(methyl)amino]propanoic acid]: the inhibition at 10 µM was 82%.

With `COCCOc1ccc2oc(C(Nc3ccc(C(=O)N(C)CCC(=O)O)cc3)C(C)C)c(C)c2c1` (centres unmarked) [Example A173, 3-[{[4-({1-[5-(2-methoxyethoxy)-3-methyl-1-benzofuran-2-yl]-2-methylpropyl}amino)phenyl]carbonyl}(methyl)amino]propanoic acid], the inhibition at 10 µM is 74%.

`COc1ccc(-c2ccc3oc(C(Nc4ccc(C(=O)N(C)CCC(=O)O)cc4)C4CCCCC4)c(C)c3c2)cn1` (centres unmarked) [Example A174, 3-[{[4-({cyclohexyl[5-(6-methoxypyridin-3-yl)-3-methyl-1-benzofuran-2-yl]methyl}amino)phenyl]carbonyl}(methyl)amino]propanoic acid]: the inhibition at 10 µM was determined as 98%.

For `Cc1c(C(Nc2ccc(C(=O)N(C)CCC(=O)O)cc2)C(C)C)oc2cccc(F)c12` (centres unmarked) [Example A175, 3-{[(4-{[1-(4-fluoro-3-methyl-1-benzofuran-2-yl)-2-methylpropyl]amino}phenyl)carbonyl](methyl)amino}propanoic acid], the inhibition at 10 µM turned out to be 68%.

`Cc1c(C(Nc2ccc(C(=O)N(C)CCC(=O)O)cc2)C2CCCCC2)oc2ccc(-c3ccccc3)cc12` (centres unmarked) [Example A176, 3-{[(4-{[cyclohexyl(3-methyl-5-phenyl-1-benzofuran-2-yl)methyl]amino}phenyl)carbonyl](methyl)amino}propanoic acid]: the inhibition at 10 µM was found to be 96%.

As for `COc1ncccc1-c1ccc2oc(C(Nc3ccc(C(=O)N(C)CCC(=O)O)cc3)C3CCCCC3)c(C)c2c1` (centres unmarked) [Example A177, 3-[{[4-({cyclohexyl[5-(2-methoxypyridin-3-yl)-3-methyl-1-benzofuran-2-yl]methyl}amino)phenyl]carbonyl}(methyl)amino]propanoic acid], the inhibition at 10 µM is 90%.

Consider `Cc1noc(C)c1-c1ccc2oc(C(Nc3ccc(C(=O)N(C)CCC(=O)O)cc3)C3CCCCC3)c(C)c2c1` (centres unmarked) [Example A178, 3-[{[4-({cyclohexyl[5-(3,5-dimethylisoxazol-4-yl)-3-methyl-1-benzofuran-2-yl]methyl}amino)phenyl]carbonyl}(methyl)amino]propanoic acid], for which the inhibition at 10 µM was 86%.

`CCC(Nc1ccc(C(=O)N(C)CCC(=O)O)cc1)c1oc2ccc(OCc3ccccc3)cc2c1C` (centres unmarked) [Example A179, 3-[{[4-({1-[5-(benzyloxy)-3-methyl-1-benzofuran-2-yl]propyl}amino)phenyl]carbonyl}(methyl)amino]propanoic acid]: the inhibition at 10 µM is 84%.

As to `Cc1c(C(Nc2ccc(C(=O)N(C)CCC(=O)O)cc2)C(C)C)oc2ccc(OC3CCOCC3)cc12` (centres unmarked) [Example A180, 3-(methyl{[4-({2-methyl-1-[3-methyl-5-(tetrahydro-2H-pyran-4-yloxy)-1-benzofuran-2-yl]propyl}amino)phenyl]carbonyl}amino)propanoic acid], the inhibition at 10 µM came out at 83%.

Take `Cc1c(C(Nc2ccc(C(=O)N(C)CCC(=O)O)cc2)C2CCCCC2)oc2ccc(-c3cnn(C)c3)cc12` (centres unmarked) [Example A181, 3-[{[4-({cyclohexyl[3-methyl-5-(1-methyl-1H-pyrazol-4-yl)-1-benzofuran-2-yl]methyl}amino)phenyl]carbonyl}(methyl)amino]propanoic acid]: the inhibition at 10 µM came to 88%.

On to `COc1ccc(-c2ccc3oc(C(Nc4ccc(C(=O)N(C)CCC(=O)O)cc4)C(C)C)c(C)c3c2)cn1` (centres unmarked) [Example A182, 3-[{[4-({1-[5-(6-methoxypyridin-3-yl)-3-methyl-1-benzofuran-2-yl]-2-methylpropyl}amino)phenyl]carbonyl}(methyl)amino]propanoic acid], for which the inhibition at 10 µM was found to be 95%.

In the case of `COc1ncccc1-c1ccc2oc(C(Nc3ccc(C(=O)N(C)CCC(=O)O)cc3)C(C)C)c(C)c2c1` (centres unmarked) [Example A183, 3-[{[4-({1-[5-(2-methoxypyridin-3-yl)-3-methyl-1-benzofuran-2-yl]-2-methylpropyl}amino)phenyl]carbonyl}(methyl)amino]propanoic acid], the inhibition at 10 µM was determined as 88%.

As for `Cc1c(C(Nc2ccc(C(=O)N(C)CCC(=O)O)cc2)C(C)C)oc2ccc(C3CC3)cc12` (centres unmarked) [Example A184, 3-{[(4-{[1-(5-cyclopropyl-3-methyl-1-benzofuran-2-yl)-2-methylpropyl]amino}phenyl)carbonyl](methyl)amino}propanoic acid], the inhibition at 10 µM was determined as 74%.

For the compound `Cc1c(C(Nc2ccc(C(=O)N(C)CCC(=O)O)cn2)C2CCCCC2)oc2c(F)cc(F)cc12` (centres unmarked) [Example A185, 3-{[(6-{[cyclohexyl(5,7-difluoro-3-methyl-1-benzofuran-2-yl)methyl]amino}pyridin-3-yl)carbonyl](methyl)amino}propanoic acid], the inhibition at 10 µM is 71%.

As to `Cc1c(C(Nc2ccc(C(=O)N(C)CCC(=O)O)cc2)C2CCCCC2)oc2ccc(N3CCOCC3)cc12` (centres unmarked) [Example A186, 3-[{[4-({cyclohexyl[3-methyl-5-(morpholin-4-yl)-1-benzofuran-2-yl]methyl}amino)phenyl]carbonyl}(methyl)amino]propanoic acid], the inhibition at 10 µM was found to be 85%.

For the compound `Cc1c(C(Nc2ccc(C(=O)N(C)CCC(=O)O)cc2)C2CCCCC2)oc2ccc(N3CCSCC3)cc12` (centres unmarked) [Example A187, 3-[{[4-({cyclohexyl[3-methyl-5-(thiomorpholin-4-yl)-1-benzofuran-2-yl]methyl}amino)phenyl]carbonyl}(methyl)amino]propanoic acid], the inhibition at 10 µM is 90%.

Consider `COCCN(C)c1ccc2oc(C(Nc3ccc(C(=O)N(C)CCC(=O)O)cc3)C3CCCCC3)c(C)c2c1` (centres unmarked) [Example A188, 3-[({4-[(cyclohexyl{5-[(2-methoxyethyl)(methyl)amino]-3-methyl-1-benzofuran-2-yl}methyl)amino]phenyl}carbonyl)(methyl)amino]propanoic acid], for which the inhibition at 10 µM was determined as 77%.

With `Cc1c(C(Nc2ccc(C(=O)NCCC(=O)O)cc2)C2CCCC2)oc2ccc(F)cc12` (centres unmarked) [Example A190, 3-{[(4-{[cyclopentyl(5-fluoro-3-methyl-1-benzofuran-2-yl)methyl]amino}phenyl)carbonyl]amino}propanoic acid], the inhibition at 10 µM worked out at 86%.

Consider `CCC(CC)C(Nc1ccc(C(=O)NCCC(=O)O)cc1)c1oc2ccc(F)cc2c1C` (centres unmarked) [Example A191, 3-{[(4-{[2-ethyl-1-(5-fluoro-3-methyl-1-benzofuran-2-yl)butyl]amino}phenyl)carbonyl]amino}propanoic acid], for which the inhibition at 10 µM was 82%.

For the compound `Cc1c(C(Nc2ccc(C(=O)N(C)CCC(=O)O)cc2)C(C)C)oc2ccc(F)cc12` (centres unmarked) [Example A192], the inhibition at 10 µM was 72%.

For `Cc1c(C(Nc2ccc(C(=O)NCCC(=O)O)cc2)C(C)C)oc2ccc(F)cc12` (centres unmarked) [Example A193, 3-{[(4-{[1-(5-fluoro-3-methyl-1-benzofuran-2-yl)-2-methylpropyl]amino}phenyl)carbonyl]amino}propanoic acid], the inhibition at 10 µM worked out at 80%.

As to `Cc1cc(COc2ccc3oc(C(Nc4ccc(C(=O)N(C)CCC(=O)O)cc4)C4CCCCC4)c(C)c3c2)no1` (centres unmarked) [Example A194, 3-[({4-[(cyclohexyl{3-methyl-5-[(5-methylisoxazol-3-yl)methoxy]-1-benzofuran-2-yl}methyl)amino]phenyl}carbonyl)(methyl)amino]propanoic acid], the inhibition at 10 µM was 88%.

Take `Cc1c(C(Nc2ccc(C(=O)N(C)CCC(=O)O)cc2)C2CCCCC2)oc2ccc(OCC(C)(C)O)cc12` (centres unmarked) [Example A195, 3-[{[4-({cyclohexyl[5-(2-hydroxy-2-methylpropoxy)-3-methyl-1-benzofuran-2-yl]methyl}amino)phenyl]carbonyl}(methyl)amino]propanoic acid]: the inhibition at 10 µM came to 84%.
